The text below walks through data of paper PMC11873939, “Target Identification with Live-Cell Photoaffinity Labeling and Mechanism of Action Elucidation of ARN23765, a Highly Potent CFTR Corrector” (Journal of Medicinal Chemistry, 2025).

Common to all, as to type: cell-based
The target of data set [1] is CFTR fragments containing MSD2 (Homo sapiens, UniProt P13569). Description: CFTR fragment stability analysis (WB) in transfected HEK293 cells. To be noted: HEK293, 24 h incubation, 10 nM. The protocol:
(§1) CFTR correctors are expected to stabilize the expression of the protein domains with which they interact, resulting in an increased amount of protein.[35]−[37] To determinate the portion of CFTR with which ARN23765 interacts, constructs coding for CFTR fragments of different lengths (Figure 3A) were transfected in HEK293 cells, and the effect of 24 h incubation with ARN23765 on the expression of the truncated proteins was analyzed with WB. […] To better study ARN23765’s stabilization of MSD1 vs MSD2, we analyzed their expression in transfected HEK-293 cells over 6 h of cycloheximide treatment.
(§2) Constructs coding for MSD1 (residues 1–380), A52-tagged MSD2 (residues 837–1196) and MSD2-NBD2 (residues 850–1480) were transfected in HEK293 cells using JetPEI reagent (101000053, Polyplus Technology). After 18 h transfection, cells were treated for 24 h with either 0.2% DMSO, VX-661 (3 μM), ARN23765 (10 nM) or corr-4a (10 μM). Cell lysates were analyzed by WB, as described in the dedicated paragraph.

The target in data set [2] is CFTR fragments containing MSD1 (Homo sapiens, UniProt P13569). The description is as above. As to conditions: HEK293, 24 h incubation, 10 nM. As for the experimental part:
as §1, §2

Another data set addresses T1, CFTR MSD1 (Homo sapiens, UniProt P13569).
T1 construct: MSD1 (residues 1–380); expressed in transfected cells; host or cells: HEK293 (transient, JetPEI)
Put plainly: Cycloheximide chase assay in transfected HEK293 cells. As to conditions: HEK293, 10 nM 24 h, then 6 h of cycloheximide treatment. The protocol: (§3) HEK293 cells were transfected with MSD1- or MSD2-fragments as previously described.[39] After 18 h, cells were treated with either 0.2% DMSO or ARN23765 (10 nM). Following 24 h treatment, the protein synthesis was stopped by addition of a medium containing 0.5 mg/mL cycloheximide and either DMSO (0.2%) or ARN23765 (10 nM). The cells were incubated at 37 °C and lysed at various time periods (0–6 h). The whole cell extracts were then analyzed by WB, as described in the supplementary methods of the Supporting Information.

Another data set addresses T2, CFTR MSD2 (Homo sapiens, UniProt P13569).
T2 construct: A52-tagged MSD2 (residues 837–1196); expressed in transfected cells; host or cells: HEK293 (transient, JetPEI)
The data set is described as above. To be noted: HEK293, 10 nM 24 h, then 6 h of cycloheximide treatment. The protocol: as §3

CFTR fragments containing MSD1, sequence (P13569 1-380 limits assumed): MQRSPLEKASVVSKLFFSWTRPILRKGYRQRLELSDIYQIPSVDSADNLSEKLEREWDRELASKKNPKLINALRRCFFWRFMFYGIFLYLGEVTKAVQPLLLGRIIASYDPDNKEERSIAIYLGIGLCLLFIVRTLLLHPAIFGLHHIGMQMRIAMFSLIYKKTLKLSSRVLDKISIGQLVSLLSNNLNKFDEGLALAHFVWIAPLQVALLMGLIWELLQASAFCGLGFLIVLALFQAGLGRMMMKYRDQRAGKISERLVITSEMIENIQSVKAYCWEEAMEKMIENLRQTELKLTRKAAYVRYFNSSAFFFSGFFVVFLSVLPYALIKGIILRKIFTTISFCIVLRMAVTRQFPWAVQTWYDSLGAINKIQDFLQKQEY
CFTR fragments containing MSD2, sequence (P13569 850-1196 limits assumed): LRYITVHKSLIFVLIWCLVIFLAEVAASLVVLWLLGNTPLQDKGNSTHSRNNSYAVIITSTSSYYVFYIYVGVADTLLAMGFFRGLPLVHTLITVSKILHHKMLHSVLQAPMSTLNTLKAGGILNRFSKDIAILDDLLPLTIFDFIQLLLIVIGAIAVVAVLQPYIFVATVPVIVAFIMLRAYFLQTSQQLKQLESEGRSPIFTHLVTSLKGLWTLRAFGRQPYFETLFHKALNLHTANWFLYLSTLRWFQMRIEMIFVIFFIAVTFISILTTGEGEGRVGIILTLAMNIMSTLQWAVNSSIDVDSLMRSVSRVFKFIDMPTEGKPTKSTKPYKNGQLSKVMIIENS
T1 sequence (P13569 1-380): as the sequence (P13569 1-380 limits assumed) above
T2 sequence (P13569 837-1196): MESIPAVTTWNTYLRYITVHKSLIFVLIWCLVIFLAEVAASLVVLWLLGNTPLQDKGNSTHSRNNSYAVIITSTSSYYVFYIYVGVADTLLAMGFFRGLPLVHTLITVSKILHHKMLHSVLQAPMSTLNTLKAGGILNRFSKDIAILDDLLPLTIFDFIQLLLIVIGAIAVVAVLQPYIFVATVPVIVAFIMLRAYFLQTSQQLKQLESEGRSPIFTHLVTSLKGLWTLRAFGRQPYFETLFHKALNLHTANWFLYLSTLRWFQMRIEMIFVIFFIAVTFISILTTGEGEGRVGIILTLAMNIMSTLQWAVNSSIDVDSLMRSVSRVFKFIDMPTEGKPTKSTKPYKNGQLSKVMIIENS

On to `CN(C(=O)c1cccc(-n2nc(C(F)(F)F)c3c2[C@@H](Oc2ccc(C(=O)O)cc2)CCC3)c1)c1ccc2c(c1)OC(F)(F)O2` [ARN23765], for which the “Expression of CFTR fragments containing MSD2 (WB)” value in data set [1] is recorded as “no difference in expression”. Further, in data set [2], the “Correction of CFTR with R domain deleted (delR construct, WB)” value is recorded as “still corrected” and the “Expression of CFTR fragments containing MSD1 (WB)” value was “increased expression”. Besides, the MSD1 half-life entry at CFTR MSD1 was “increased”. In addition, the MSD2 stability result on CFTR MSD2 is listed as “no effect”.
